Test results published in PMC9525273 (Nature Communications, 2022).
Where “and” joins values, the source holds several entries; their conditions need not be identical. Equal values may be shown once. Read-outs that look alike come from different tables or passages of the source.

Key:
[1] = biological target: T1, PfATP4^G358S (membranes from Dd2-Polδ-PfATP4^G358S parasites) (Plasmodium falciparum, UniProt A0A143ZZK9, G358S); experiment: Membrane ATPase assay, ATP4-associated (Na+-dependent) ATPase activity; assay type: biochemical; conditions: Dd2-Polδ-PfATP4G358S
T1 sequence (A0A143ZZK9 1-1264 G358S): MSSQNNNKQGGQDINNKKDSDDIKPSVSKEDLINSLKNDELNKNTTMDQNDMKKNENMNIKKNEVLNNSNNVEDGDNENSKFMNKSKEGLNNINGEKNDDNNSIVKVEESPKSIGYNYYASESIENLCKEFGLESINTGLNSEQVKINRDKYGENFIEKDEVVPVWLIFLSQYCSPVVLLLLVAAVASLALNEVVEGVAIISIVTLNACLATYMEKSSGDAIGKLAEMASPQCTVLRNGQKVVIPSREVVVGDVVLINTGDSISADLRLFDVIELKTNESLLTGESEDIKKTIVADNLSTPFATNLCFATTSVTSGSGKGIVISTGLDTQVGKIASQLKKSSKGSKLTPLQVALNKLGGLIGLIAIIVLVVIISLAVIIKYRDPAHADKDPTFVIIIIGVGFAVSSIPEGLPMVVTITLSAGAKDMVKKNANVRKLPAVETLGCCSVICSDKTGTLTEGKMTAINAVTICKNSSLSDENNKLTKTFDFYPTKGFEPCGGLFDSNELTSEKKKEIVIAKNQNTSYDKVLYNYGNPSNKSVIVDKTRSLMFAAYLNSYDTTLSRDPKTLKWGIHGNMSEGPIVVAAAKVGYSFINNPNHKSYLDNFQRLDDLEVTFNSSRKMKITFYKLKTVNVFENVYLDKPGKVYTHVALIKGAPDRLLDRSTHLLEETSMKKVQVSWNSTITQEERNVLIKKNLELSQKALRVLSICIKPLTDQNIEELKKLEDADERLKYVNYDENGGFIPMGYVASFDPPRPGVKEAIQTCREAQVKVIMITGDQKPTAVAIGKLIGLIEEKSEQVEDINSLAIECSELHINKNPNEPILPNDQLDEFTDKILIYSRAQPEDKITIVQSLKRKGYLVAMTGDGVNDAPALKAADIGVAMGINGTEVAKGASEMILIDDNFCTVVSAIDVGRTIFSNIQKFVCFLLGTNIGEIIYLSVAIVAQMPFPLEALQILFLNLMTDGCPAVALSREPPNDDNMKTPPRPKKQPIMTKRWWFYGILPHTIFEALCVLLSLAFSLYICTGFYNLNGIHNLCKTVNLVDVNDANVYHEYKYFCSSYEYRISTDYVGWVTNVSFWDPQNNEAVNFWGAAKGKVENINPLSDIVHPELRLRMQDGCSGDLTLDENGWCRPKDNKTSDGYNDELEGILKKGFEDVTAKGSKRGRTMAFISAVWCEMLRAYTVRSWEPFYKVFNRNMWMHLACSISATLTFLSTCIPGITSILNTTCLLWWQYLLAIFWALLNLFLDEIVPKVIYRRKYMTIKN
Protocol: Membranes from isolated P. falciparum or extracellular T. gondii parasites were prepared by lysing parasites in ice-cold deionized water containing a 1:500 dilution of Protease Inhibitor Cocktail Set III (Merck Millipore), then washing the membrane preparation three times in ice-cold deionized water (with protease inhibitors present for the first two washes)[15]. Protein concentrations in the membrane preparations were measured using a Bradford assay. The PiColorLock Gold Phosphate Detection System (Innova Biosciences) was used to measure the production of Pi from hydrolysis of ATP[15]. Membrane preparations were diluted in either a high Na^+ solution (yielding final conditions in the reactions of 150 mM NaCl, 20 mM KCl, 2 mM MgCl2, 50 mM Tris, pH 7.2) or a Na^+-free solution (yielding final conditions of 150 mM choline chloride, 20 mM KCl, 2 mM MgCl2, 50 mM Tris, pH 7.2) to achieve a total protein concentration of 50 μg/mL. […] The reactions were performed at 37 °C, and were initiated by the addition of 1 mM ATP (Na2ATP۰3H2O; MP Biomedicals) and terminated 10 min later by adding 100 μL of reaction mixture (in duplicate) to 25 μL “Gold mix” in a 96-well plate. […] Background values (averaged from wells containing all components, but to which ATP was not added until after the membrane was exposed to Gold mix) were subtracted from the data. For each treatment, the ATPase activity associated with the (Na^+-dependent) PfATP4 and TgATP4 proteins was calculated by subtracting data obtained in the low Na^+ condition (containing only the 2 mM Na^+ introduced on addition of 1 mM Na2ATP) from that obtained in the high Na^+ condition.

NF54^G358S-2 parasites = experiment: P. falciparum proliferation assay (72 h, flow cytometry, SYBR Green I/MitoTracker); assay type: cell-based, Plasmodium falciparum
Protocol: (§1) For the NF54-based lines and Dd2-B2-PfATP4^G358S and its parent, assays were initiated with cultures containing predominantly ring-stage parasites with a parasitaemia of 0.3% and a haematocrit of 1%. All assays using NF54 were performed in culture media containing 10% O + human serum. The duration of the assays was 72 h and the concentration of DMSO was <0.5% (v/v). Serial dilutions of the test compounds were performed using a Tecan D300e digital dispenser, with parasite cultures added manually. Parasite survival was assessed by flow cytometry on an Intellicyt iQue3 (Essen Bioscience), with 1× SYBR Green I (Invitrogen) and 200 nM MitoTracker Deep Red FM (Invitrogen) used to stain the nucleus and the mitochondria in live parasites, respectively. The gating strategy used to quantify parasite survival, performed using FlowJo version 10 (FlowJo LLC.), is illustrated in Supplementary Fig. 9. IC50 and IC90 values were calculated by linear interpolation of the dose-response data.

NF54^G358S-1 parasites = experiment: as above; assay type: cell-based, Plasmodium falciparum
Protocol: as §1

## N#Cc1cc(NC(=O)[C@H]2c3ccccc3C(=O)N(CC(F)(F)F)[C@@H]2c2cccnc2)ccc1F [(+)SJ733]
[1]; [(+)SJ733] 0.122 nM, MEAN
  PfATP4-associated ATPase activity (% of control): 85.0 % of control
[1]; [(+)SJ733] 0.122 nM, single experiments, 0.000122 µM
  PfATP4-associated ATPase activity (% of control): 115.8 % of control and 74.1 % of control and 65.2 % of control
[1]; [(+)SJ733] 0.244 nM, MEAN
  PfATP4-associated ATPase activity (% of control): 125.3 % of control
[1]; [(+)SJ733] 0.244 nM, single experiments, 0.000244 µM
  PfATP4-associated ATPase activity (% of control): 139.0 % of control and 119.0 % of control and 117.8 % of control
[1]; [(+)SJ733] 0.5 nM, MEAN
  PfATP4-associated ATPase activity (% of control): 90.2 % of control
[1]; [(+)SJ733] 0.5 nM, single experiments, 0.0005 µM
  PfATP4-associated ATPase activity (% of control): 95.6 % of control and 76.4 % of control and 98.6 % of control
[1]; [(+)SJ733] 1.0 nM, MEAN
  PfATP4-associated ATPase activity (% of control): 98.3 % of control
[1]; [(+)SJ733] 2.0 nM, MEAN
  PfATP4-associated ATPase activity (% of control): 109.4 % of control
[1]; [(+)SJ733] 2.0 nM, single experiments, 0.002 µM
  PfATP4-associated ATPase activity (% of control): 114.6 % of control and 135.7 % of control and 77.8 % of control
[1]; [(+)SJ733] 3.9 nM, MEAN
  PfATP4-associated ATPase activity (% of control): 81.9 % of control
[1]; [(+)SJ733] 3.9 nM, single experiments, 0.0039 µM
  PfATP4-associated ATPase activity (% of control): 93.0 % of control and 73.2 % of control and 79.5 % of control
[1]; [(+)SJ733] 7.8 nM, MEAN
  PfATP4-associated ATPase activity (% of control): 84.3 % of control
[1]; [(+)SJ733] 7.8 nM, single experiments, 0.0078 µM
  PfATP4-associated ATPase activity (% of control): 82.0 % of control and 99.5 % of control and 71.2 % of control
[1]; [(+)SJ733] 15.6 nM, MEAN
  PfATP4-associated ATPase activity (% of control): 119.8 % of control
[1]; [(+)SJ733] 15.6 nM, single experiments, 0.0156 µM
  PfATP4-associated ATPase activity (% of control): 88.8 % of control and 152.3 % of control and 118.3 % of control
[1]; [(+)SJ733] 31.3 nM, MEAN
  PfATP4-associated ATPase activity (% of control): 94.2 % of control
[1]; [(+)SJ733] 31.3 nM, single experiments, 0.0313 µM
  PfATP4-associated ATPase activity (% of control): 92.0 % of control and 104.2 % of control and 86.4 % of control
[1]; [(+)SJ733] 62.5 nM, MEAN
  PfATP4-associated ATPase activity (% of control): 103.2 % of control
[1]; [(+)SJ733] 62.5 nM, single experiments, 0.0625 µM
  PfATP4-associated ATPase activity (% of control): 102.4 % of control and 79.6 % of control and 127.6 % of control
[1]; [(+)SJ733] 250 nM, MEAN
  PfATP4-associated ATPase activity (% of control): 82.2 % of control
[1]; [(+)SJ733] 250 nM, single experiments, 0.25 µM
  PfATP4-associated ATPase activity (% of control): 91.0 % of control and 86.1 % of control and 69.4 % of control
[1]; [(+)SJ733] 500 nM, MEAN
  PfATP4-associated ATPase activity (% of control): 53.9 % of control
[1]; [(+)SJ733] 1000 nM, MEAN
  PfATP4-associated ATPase activity (% of control): 56.2 % of control
[1]; [(+)SJ733] 2000 nM, MEAN
  PfATP4-associated ATPase activity (% of control): 20.4 % of control
[1]; [(+)SJ733] 4000 nM, MEAN
  PfATP4-associated ATPase activity (% of control): -1.2 % of control
[1]; [(+)SJ733] 8000 nM, MEAN
  PfATP4-associated ATPase activity (% of control): -15.8 % of control

## C[C@H]1[C@@H](O)O[C@@H]2O[C@@]3(C)CC[C@H]4[C@H](C)CC[C@@H]1[C@@]24OO3 [Dihydroartemisinin]
NF54^G358S-2 parasites; NF54G358S-2 compared to NF54WT
  FC (IC50): 1.1 fold
  FC (IC90): 1.2 fold
NF54^G358S-2 parasites; NF54G358S-2 parasites, individual experiments, read-out: IC90 values
  IC90: 2.9 nM and 2.51 nM and 2.93 nM
NF54^G358S-2 parasites; Plasmodium falciparum, NF54, NF54G358S-2, 10% human serum, read-out: IC50 ± SEM
  IC50: 0.9 ± 0.1 nM
NF54^G358S-2 parasites; Plasmodium falciparum, NF54, NF54G358S-2 parasites, individual experiments, read-out: IC90 values
  IC90: 2.84 nM
NF54^G358S-2 parasites; Plasmodium falciparum, NF54, NF54G358S-2 parasites, mean of the experiments, read-out: IC90 values, MEAN
  IC90: 2.8 nM
NF54^G358S-2 parasites; Plasmodium falciparum, NF54, read-out: Dihydroartemisinin IC50 values, NF54G358S-2, MEAN
  IC50: 0.91 nM
NF54^G358S-2 parasites; read-out: Dihydroartemisinin IC50 values, NF54G358S-2, single experiments
  IC50: 0.73 nM
NF54^G358S-1 parasites; NF54G358S-1 compared to NF54WT
  FC (IC50): 1.1 fold
  FC (IC90): 1.1 fold
NF54^G358S-1 parasites; NF54G358S-1 parasites, individual experiments, read-out: IC90 values
  IC90: 2.78 nM and 2.34 nM and 2.64 nM
NF54^G358S-1 parasites; Plasmodium falciparum, NF54, NF54G358S-1 parasites, individual experiments, read-out: IC90 values
  IC90: 2.68 nM
NF54^G358S-1 parasites; Plasmodium falciparum, NF54, NF54G358S-1 parasites, mean of the experiments, read-out: IC90 values, MEAN
  IC90: 2.6 nM
NF54^G358S-1 parasites; Plasmodium falciparum, NF54, read-out: Dihydroartemisinin IC50 values, NF54G358S-1, MEAN
  IC50: 0.9 nM
NF54^G358S-1 parasites; read-out: Dihydroartemisinin IC50 values, NF54G358S-1, single experiments
  IC50: 0.76 nM and 0.77 nM
